Measurements taken from patent US20240207236A1, “COMPOUND FOR PREVENTING OR TREATING DIABETES” (ONCOCROSS CO., LTD., priority 2021, published 2024).

Columns and labels:
Assay type in all cases: in vivo, mice (C57BL/6)
[1] = test system: animal model of insulin-resistant diabetes; assay: Blood sugar, tail vein blood, blood sugar meter, 4 h fasting; parameters: blood sugar, Mean: unit not given here
Protocol: (§1) STZ (Sigma-aldrich, S0130, 40 mg/kg b.w., in 0.1 M citrate buffer pH 4.5) was intraperitoneally administered to 9-week-old male mice (C57BL/6) once/1 day for 5 days to perform a first disease induction. After 7 weeks of the first induction, a second induction was performed using the same method as the first induction. For 5 days of an STZ administration period for the first induction, 10% sucrose was administered as drinking water. In addition, after 14 days of the second administration, blood sugar was confirmed to confirm the induction rate, and the induced animals were separated into groups. Experimental substances (R)-4-{(R)-1-[7-(3,4,5-trimethoxy-phenyl)-[1,6] naphthyridine-5-yloxy]-ethyl}pyrrolidine-2-one (BI-1002494) and cromolyn (OC-101) were administered orally into the stomach at 10 mL/kg using an oral administration syringe (sonde) before 16:00 daily for 12 weeks at a frequency of 7 days/week at doses shown in Table 1 below, respectively, and dexamethasone was orally administered as a positive control substance.
Before disease induction, excluding week 9 of administration of experimental substances to mice in each group of Example 1 above, after 2 weeks after the first induction (based on a first administration date), and after 6 weeks and 2 weeks of the second induction (based on the first administration date), blood was collected from the tail vein and blood sugar was measured using a blood sugar meter (Accu-Check, Roche), and fasting was performed for 4 hours from 9:30 a.m. to 1:30 p.m.

[2] = test system: animal model of insulin-resistant diabetes; assay: Blood biochemistry, automated analyzer, at end of observation; details: for ALT, Mean / T-CHO, Mean / AST, Mean: 12 weeks, blood
Protocol: as §1
(§2) After the observation period for mice of each group in Example 1 was terminated, all surviving animals were fasted in the same manner as when measuring blood sugar, and then anesthetized by inhaling isoflurane, and blood was collected from the abdominal vena cava through laparotomy. After the blood collection was completed, the veins and arteries were cut under anesthesia and exsanguinated. The collected blood was left at room temperature for 30 minutes or more and then centrifuged at 3,000 rpm for 20 minutes. Thereafter, glucose, blood urea nitrogen (BUN), and creatinine were analyzed using an automated blood biochemistry analyzer (Hitachi 3100, Hitachi Co. Ltd., Japan). Indoxyl sulfate (a substance that was mainly produced in the intestines to cause kidney damage, and a substance that caused end-stage renal failure by advancing kidney function damage in patients with renal failure during hemodialysis) was analyzed using LC MS/MS. In addition, blood insulin was analyzed according to a method represented by a commercial Mouse Insulin ELISA KIT (#AKRIN-011T, Sibayagi Co. Ltd., Japan).

[3] = Body weight of mice in STZ-induced insulin-resistant diabetes model
Protocol: as §1

[4] = test system: animal model of insulin-resistant diabetes; assay: Blood indoxyl sulfate by LC MS/MS; details: 12 weeks
Protocol: as §1, §2

[5] = Feed intake of mice in STZ-induced insulin-resistant diabetes model; parameters: feed intake: unit not given here
Protocol: as §1

[6] = test system: animal model of insulin-resistant diabetes; assay: Blood insulin (Mouse Insulin ELISA) and HOMA-IR
Protocol: as §1, §2

[7] = after induction of diabetic disease, 12.5-50 mg/kg

Structure (SMILES): COc1cc(-c2cc3ncccc3c(O[C@H](C)[C@H]3CNC(=O)C3)n2)cc(OC)c1OC [BI-1002494, (R)-4-{(R)-1-[7-(3,4,5-trimethoxy-phenyl)-[1,6]naphthyridine-5-yloxy]-ethyl}pyrrolidine-2-one]
- blood sugar, Mean ([1]; 12.5 mg/kg/day oral, value column 2 of 6, head prints only weeks 0, 4, 8, 10): 319.5
- blood sugar, Mean ([1]; 12.5 mg/kg/day oral, week 0): 291.1
- blood sugar, Mean ([1]; 25 mg/kg/day oral, value column 2 of 6, head prints only weeks 0, 4, 8, 10): 310.1
- blood sugar, Mean ([1]; 25 mg/kg/day oral, week 0): 301.2
- blood sugar, Mean ([1]; 50 mg/kg/day oral, value column 2 of 6, head prints only weeks 0, 4, 8, 10): 264.5
- blood sugar, Mean ([1]; 50 mg/kg/day oral, week 0): 303.7
- blood sugar compared to the positive control group ([1]; administered group, dose not specified): decreased significantly
- blood sugar, summary [1, 7]: decreased in a dose-dependent manner
- ALT, Mean ([2]; 12.5 mg/kg/day oral): 45.7 L⁻¹
- T-CHO, Mean ([2]; 12.5 mg/kg/day oral): 151.6 dL⁻¹
- ALT, Mean ([2]; 25 mg/kg/day oral): 30.9 L⁻¹
- AST, Mean ([2]; 25 mg/kg/day oral): 76.8 L⁻¹
- T-CHO, Mean ([2]; 25 mg/kg/day oral): 125.0 dL⁻¹
- ALT, Mean ([2]; 50 mg/kg/day oral): 45.8 L⁻¹
- AST, Mean ([2]; 50 mg/kg/day oral): 83.4 L⁻¹
- T-CHO, Mean ([2]; 50 mg/kg/day oral): 138.7 dL⁻¹
- dose dependence of GLU reduction ([2]; 12.5, 25, 50 mg/kg): clear dose dependence
- blood glucose, summary [2, 7]: decreased in a dose-dependent manner
- GLU, statistical comparison ([2]; all administered groups (12.5, 25, 50 mg/kg)): statistically significantly reduced
- body weight, Mean ([3]; 12.5 mg/kg/day oral, week 0): 24 g
- body weight, Mean ([3]; 12.5 mg/kg/day oral, week 1): 23.7 g
- body weight, Mean ([3]; 12.5 mg/kg/day oral, week 2): 23 g
- body weight, Mean ([3]; 12.5 mg/kg/day oral, week 3): 24.1 g
- body weight, Mean ([3]; 12.5 mg/kg/day oral, week 4): 24.3 g
- body weight compared to the disease control group ([3]; 12.5 mg/kg, after week 5 of administration): statistically significantly increased
- body weight, Mean ([3]; 25 mg/kg/day oral, week 0): 23.6 g
- body weight, Mean ([3]; 25 mg/kg/day oral, week 1): 23.5 g
- body weight, Mean ([3]; 25 mg/kg/day oral, week 2): 23.7 g
- body weight, Mean ([3]; 25 mg/kg/day oral, week 3): 23.9 g
- body weight, Mean ([3]; 25 mg/kg/day oral, week 4): 23.9 g
- body weight, Mean ([3]; 25 mg/kg/day oral, week 5): 24 g
- body weight, Mean ([3]; 25 mg/kg/day oral, week 6): 23.9 g
- body weight, Mean ([3]; 25 mg/kg/day oral, week 7): 24 g
- body weight compared to the disease control group ([3]; 25 mg/kg, after week 8): statistically significantly increased
- body weight, Mean ([3]; 50 mg/kg/day oral, week 0): 23.9 g
- body weight, Mean ([3]; 50 mg/kg/day oral, week 2): 23.8 g
- body weight, Mean ([3]; 50 mg/kg/day oral, week 3): 23.8 g
- body weight, Mean ([3]; 50 mg/kg/day oral, week 4): 23.8 g
- body weight, Mean ([3]; 50 mg/kg/day oral, week 5): 23.6 g
- body weight, Mean ([3]; 50 mg/kg/day oral, week 6): 23.8 g
- body weight, Mean ([3]; 50 mg/kg/day oral, week 7): 24 g
- body weight compared to the disease control group ([3]; 50 mg/kg, after week 8): statistically significantly increased
- Indoxyl sulfate, Mean ([4]; 12.5 mg/kg/day oral): 2.2 µg/mL
- Indoxyl sulfate, Mean ([4]; 25 mg/kg/day oral): 2.2 µg/mL
- Indoxyl sulfate, Mean ([4]; 50 mg/kg/day oral): 1.9 µg/mL
- feed intake compared to the disease control group ([5]; 12.5 mg/kg, after week 4 of administration): statistically significantly decreased
- feed intake ([5]; 25 mg/kg/day oral, week 1): 5.60
- feed intake ([5]; 25 mg/kg/day oral, week 2): 5.58
- feed intake ([5]; 25 mg/kg/day oral, week 3): 5.26
- feed intake ([5]; 25 mg/kg/day oral, week 4): 4.99
- feed intake ([5]; 25 mg/kg/day oral, week 5): 5.15
- feed intake ([5]; 25 mg/kg/day oral, week 7): 5.04
- feed intake ([5]; 25 mg/kg/day oral, week 8): 4.95
- feed intake ([5]; 25 mg/kg/day oral, week 9): 4.62
- feed intake ([5]; 25 mg/kg/day oral, week 10): 4.63
- feed intake compared to the disease control group ([5]; 25 mg/kg, after week 6 of administration): statistically significantly decreased
- feed intake ([5]; 50 mg/kg/day oral, week 1): 5.74
- feed intake ([5]; 50 mg/kg/day oral, week 4): 5.14
- feed intake ([5]; 50 mg/kg/day oral, week 7): 5.11
- feed intake ([5]; 50 mg/kg/day oral, week 9): 4.30
- feed intake ([5]; 50 mg/kg/day oral, week 10): 4.14
- feed intake compared to the disease control group ([5]; 50 mg/kg, after week 8 of administration): statistically significantly decreased
- HOMA-IR compared with the disease control group ([6]; 25 mg/kg): statistically significantly reduced
- HOMA-IR compared with the disease control group ([6]; 50 mg/kg): statistically significantly reduced
- insulin resistance (HOMA-IR), summary [6, 7]: decreased in a dose-dependent manner
